Assay results reported in ChEMBL document CHEMBL1201862, “PubChem BioAssay data set” (2004).
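Dose response: 5 concentrations. Exposure: 48 h. Format: 96-well plates. Endpoint: linear interpolation; highest concentration if not reached. The concentration for 50% growth inhibition is given as GI50.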 Active and inactive are the calls of the source. Rule as the data show it: active = GI50 up to about 1.1 µM and inactive = higher.

Assays:
Experiment in all cases: inhibition of tumour cell growth, NCI panel, 48 h
TK-10 = system: TK-10
HCT-116 = system: HCT-116
A549 = system: A549
HT-29 = system: HT-29
M14 = system: M14
MDA-N = system: MDA-N
NCI-H226 = system: NCI-H226
ACHN = system: ACHN
MDA-MB-435 = system: MDA-MB-435
SF-295 = system: SF-295
HOP-92 = system: HOP-92
PC-3 = system: PC-3
SK-MEL-2 = system: SK-MEL-2
UO-31 = system: UO-31
SF-539 = system: SF-539
SK-OV-3 = system: SK-OV-3
A498 = system: A498
DU-145 = system: DU-145
NCI-H522 = system: NCI-H522
OVCAR-5 = system: OVCAR-5

With `CCCC(=O)NC1CCc2cc(OC)c(OC)c(OC)c2-c2ccc(OC)c(=O)cc21` (stereo not given) the GI50 (TK-10) was 78.5 µM (inactive), the GI50 (HCT-116) was 0.000361 µM (active) and the GI50 (A549) was 0.00538 µM (active). For the same compound, the GI50 (HT-29) was 0.00036 µM (active), the GI50 (M14) was 0.000817 µM (active) and the GI50 (MDA-N) was 0.000335 µM (active). The GI50 (NCI-H226) was 0.000771 µM (active), the GI50 (ACHN) was 0.019 µM (active) and the GI50 (MDA-MB-435) was 0.000296 µM (active). For the same compound, the GI50 (SF-295) was 0.000512 µM (active), the GI50 (HOP-92) was 0.447 µM (active) and the GI50 (PC-3) was 0.000731 µM (active). For the same compound, the GI50 (SK-MEL-2) was 0.01 µM (active), the GI50 (UO-31) was 0.0813 µM (active) and the GI50 (SF-539) was 0.000296 µM (active). For the same compound, the GI50 (SK-OV-3) was 0.00454 µM (active), the GI50 (A498) was 0.00807 µM (active) and the GI50 (DU-145) was 0.00117 µM (active). For the same compound, the GI50 (NCI-H522) was 0.000442 µM (active) and the GI50 (OVCAR-5) was 0.00312 µM (active).
In the case of `O=C(O)CCc1nc2ccccc2[nH]1` [PROCODAZOLE], the GI50 (TK-10) is reported as > 100 µM (inactive), the GI50 (HCT-116) is reported as > 100 µM (inactive) and the GI50 (A549) is reported as > 100 µM (inactive). The GI50 (HT-29) was > 100 µM (inactive), the GI50 (M14) was > 100 µM (inactive) and the GI50 (MDA-N) was > 100 µM (inactive). The GI50 (NCI-H226) was > 100 µM (inactive), the GI50 (ACHN) was > 100 µM (inactive) and the GI50 (MDA-MB-435) was > 100 µM (inactive). For the same compound, the GI50 (SF-295) was > 100 µM (inactive), the GI50 (HOP-92) was > 100 µM (inactive) and the GI50 (PC-3) was > 100 µM (inactive). For the same compound, the GI50 (SK-MEL-2) was > 100 µM (inactive), the GI50 (UO-31) was > 100 µM (inactive) and the GI50 (SF-539) was > 100 µM (inactive). For the same compound, the GI50 (SK-OV-3) was 0.237 µM (active), the GI50 (A498) was > 100 µM (inactive) and the GI50 (DU-145) was > 100 µM (inactive). For the same compound, the GI50 (NCI-H522) was > 100 µM (inactive) and the GI50 (OVCAR-5) was > 100 µM (inactive).
